Reference: the supplement of paper PMC10733146

Assays:
Assay in all cases: viability relative to DMSO control (fraction); higher = less drug effect (more viable cells)
Settings in all cases: 48 h
[1] = tested on: primary ALL patient cells (S048)
How it was run: (§1)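 Viability was measured as CellTiter-Glo luminescence relative to the median of 16 inner DMSO wells. Primary mononuclear tumour cells, fresh or cryopreserved, were Ficoll-isolated from blood or bone marrow or taken from processed lymph node. They were seeded at 4 × 10^4 cells per well into 384-well plates holding pre-plated compounds at five concentrations, one well each, and kept in RPMI-1640 with penicillin/streptomycin, L-glutamine and human serum at 37 °C and 5% CO2 for 48 h.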

[2] = tested on: primary ALL patient cells (S088)
How it was run: as §1

[3] = tested on: primary AML patient cells (S009)
How it was run: as §1

[4] = tested on: primary AML patient cells (S055)
How it was run: as §1

[5] = tested on: primary AML patient cells (S056)
How it was run: as §1

[6] = tested on: primary AML patient cells (S060)
How it was run: as §1

[7] = tested on: primary AML patient cells (S071)
How it was run: as §1

[8] = tested on: primary AML patient cells (S072)
How it was run: as §1

[9] = tested on: primary AML patient cells (S079)
How it was run: as §1

[10] = tested on: primary B-PLL patient cells (S016)
How it was run: as §1

[11] = tested on: primary BL patient cells (S005)
How it was run: as §1

[12] = tested on: primary CLL patient cells (S031)
How it was run: as §1

[13] = tested on: primary DLBCL patient cells (S082)
How it was run: as §1

[14] = tested on: primary FL patient cells (S022)
How it was run: as §1

[15] = tested on: primary FL patient cells (S087)
How it was run: as §1

[16] = tested on: primary MCL patient cells (S041)
How it was run: as §1

[17] = tested on: primary MCL patient cells (S063)
How it was run: as §1

[18] = tested on: primary MCL patient cells (S068)
How it was run: as §1

[19] = tested on: primary T-PLL patient cells (S008)
How it was run: as §1

[20] = tested on: primary MCL patient cells (S053)
How it was run: as §1

`CNC(=O)c1cc(Oc2ccc(NC(=O)Nc3ccc(Cl)c(C(F)(F)F)c3)cc2)ccn1` [Sorafenib] gave a viability ([1]; 0.024 µM) of 0.874, a viability ([1]; 0.12 µM) of 1 and a viability ([1]; 0.6 µM) of 0.889. The viability ([1]; 3 µM) was 0.894, the viability ([1]; 15 µM) was 1.03 and the viability ([2]; 0.024 µM) was 0.811. For the same compound, the viability ([2]; 0.12 µM) was 0.896, the viability ([2]; 0.6 µM) was 0.844 and the viability ([2]; 3 µM) was 0.996. For the same compound, the viability ([2]; 15 µM) was 1.31, the viability ([3]; 0.024 µM) was 0.947 and the viability ([3]; 0.12 µM) was 0.828. For the same compound, the viability ([3]; 0.6 µM) was 0.869, the viability ([3]; 3 µM) was 0.985 and the viability ([3]; 15 µM) was 0.906. The viability ([4]; 0.024 µM) was 0.971, the viability ([4]; 0.12 µM) was 1.04 and the viability ([4]; 0.6 µM) was 1.02. It also gave a viability ([4]; 3 µM) of 1.08, a viability ([4]; 15 µM) of 1.04 and a viability ([5]; 0.024 µM) of 0.642. For the same compound, the viability ([5]; 0.12 µM) was 0.488, the viability ([5]; 0.6 µM) was 0.443 and the viability ([5]; 3 µM) was 0.453. It also gave a viability ([5]; 15 µM) of 0.374, a viability ([6]; 0.024 µM) of 0.963 and a viability ([6]; 0.12 µM) of 0.951. The viability ([6]; 0.6 µM) was 1.02, the viability ([6]; 3 µM) was 1.02 and the viability ([6]; 15 µM) was 1.09. The viability ([7]; 0.024 µM) was 0.944, the viability ([7]; 0.12 µM) was 1.01 and the viability ([7]; 0.6 µM) was 1.02. The viability ([7]; 3 µM) was 1, the viability ([7]; 15 µM) was 0.614 and the viability ([8]; 0.024 µM) was 1.02. For the same compound, the viability ([8]; 0.12 µM) was 1.04, the viability ([8]; 0.6 µM) was 0.99 and the viability ([8]; 3 µM) was 1.04. For the same compound, the viability ([8]; 15 µM) was 1.01, the viability ([9]; 0.024 µM) was 0.99 and the viability ([9]; 0.12 µM) was 1.02. It also gave a viability ([9]; 0.6 µM) of 1.04, a viability ([9]; 3 µM) of 1.1 and a viability ([9]; 15 µM) of 0.791. For the same compound, the viability ([10]; 0.024 µM) was 0.964, the viability ([10]; 0.12 µM) was 1.05 and the viability ([10]; 0.6 µM) was 1.01. For the same compound, the viability ([10]; 3 µM) was 1, the viability ([10]; 15 µM) was 0.978 and the viability ([11]; 0.024 µM) was 0.839. For the same compound, the viability ([11]; 0.12 µM) was 0.905, the viability ([11]; 0.6 µM) was 0.92 and the viability ([11]; 3 µM) was 0.957. It also gave a viability ([11]; 15 µM) of 0.885, a viability ([12]; 0.024 µM) of 1.01 and a viability ([12]; 0.12 µM) of 1.02. It also gave a viability ([12]; 0.6 µM) of 1.13, a viability ([12]; 3 µM) of 1.02 and a viability ([12]; 15 µM) of 1.04. It also gave a viability ([13]; 0.024 µM) of 1, a viability ([13]; 0.12 µM) of 1.02 and a viability ([13]; 0.6 µM) of 1.03. For the same compound, the viability ([13]; 3 µM) was 1.18, the viability ([13]; 15 µM) was 1.35 and the viability ([14]; 0.024 µM) was 1.05. For the same compound, the viability ([14]; 0.12 µM) was 1.01, the viability ([14]; 0.6 µM) was 1.06 and the viability ([14]; 3 µM) was 0.999. For the same compound, the viability ([14]; 15 µM) was 1, the viability ([15]; 0.024 µM) was 1.01 and the viability ([15]; 0.12 µM) was 1.04. For the same compound, the viability ([15]; 0.6 µM) was 1.08, the viability ([15]; 3 µM) was 1.06 and the viability ([15]; 15 µM) was 1.04. For the same compound, the viability ([16]; 0.024 µM) was 0.981, the viability ([16]; 0.12 µM) was 1.01 and the viability ([16]; 0.6 µM) was 1.04. For the same compound, the viability ([16]; 3 µM) was 1.05, the viability ([16]; 15 µM) was 0.95 and the viability ([17]; 0.024 µM) was 0.98. For the same compound, the viability ([17]; 0.12 µM) was 1.02, the viability ([17]; 0.6 µM) was 0.973 and the viability ([17]; 3 µM) was 1.06. The viability ([17]; 15 µM) was 1.02, the viability ([18]; 0.024 µM) was 0.919 and the viability ([18]; 0.12 µM) was 1.03. For the same compound, the viability ([18]; 0.6 µM) was 1.03, the viability ([18]; 3 µM) was 1.22 and the viability ([18]; 15 µM) was 1.66. It also gave a viability ([19]; 0.024 µM) of 0.955, a viability ([19]; 0.12 µM) of 0.997 and a viability ([19]; 0.6 µM) of 1.02. It also gave a viability ([19]; 3 µM) of 0.973 and a viability ([19]; 15 µM) of 0.948.

Compound `O=C(O)CSc1cc(NS(=O)(=O)c2ccc(Br)cc2)c2ccccc2c1O` [UMI-77] has a viability ([1]; 0.024 µM) of 0.913, a viability ([1]; 0.12 µM) of 0.88 and a viability ([1]; 0.6 µM) of 0.742. The viability ([1]; 3 µM) was 0.582, the viability ([1]; 15 µM) was 0.128 and the viability ([2]; 0.024 µM) was 0.244. For the same compound, the viability ([2]; 0.12 µM) was 0.291, the viability ([2]; 0.6 µM) was 0.291 and the viability ([2]; 3 µM) was 0.316. The viability ([2]; 15 µM) was 0.158, the viability ([3]; 0.024 µM) was 0.914 and the viability ([3]; 0.12 µM) was 0.914. It also gave a viability ([3]; 0.6 µM) of 0.802, a viability ([3]; 3 µM) of 0.571 and a viability ([3]; 15 µM) of 0.0548. The viability ([5]; 0.024 µM) was 0.838, the viability ([5]; 0.12 µM) was 0.998 and the viability ([5]; 0.6 µM) was 0.836. The viability ([5]; 3 µM) was 0.999, the viability ([5]; 15 µM) was 0.434 and the viability ([6]; 0.024 µM) was 1.1. For the same compound, the viability ([6]; 0.12 µM) was 1.13, the viability ([6]; 0.6 µM) was 1.04 and the viability ([6]; 3 µM) was 1.03. For the same compound, the viability ([6]; 15 µM) was 0.73, the viability ([7]; 0.024 µM) was 0.883 and the viability ([7]; 0.12 µM) was 0.921. It also gave a viability ([7]; 0.6 µM) of 0.879, a viability ([7]; 3 µM) of 0.85 and a viability ([7]; 15 µM) of 0.644. The viability ([8]; 0.024 µM) was 0.956, the viability ([8]; 0.12 µM) was 0.949 and the viability ([8]; 0.6 µM) was 0.94. For the same compound, the viability ([8]; 3 µM) was 0.994, the viability ([8]; 15 µM) was 0.777 and the viability ([9]; 0.024 µM) was 0.917. The viability ([9]; 0.12 µM) was 0.932, the viability ([9]; 0.6 µM) was 0.997 and the viability ([9]; 3 µM) was 0.989. For the same compound, the viability ([9]; 15 µM) was 0.79, the viability ([10]; 0.024 µM) was 1.11 and the viability ([10]; 0.12 µM) was 1.11. For the same compound, the viability ([10]; 0.6 µM) was 0.994, the viability ([10]; 3 µM) was 1.07 and the viability ([10]; 15 µM) was 0.778. It also gave a viability ([11]; 0.024 µM) of 0.92, a viability ([11]; 0.12 µM) of 0.902 and a viability ([11]; 0.6 µM) of 0.783. It also gave a viability ([11]; 3 µM) of 0.812, a viability ([11]; 15 µM) of 0.276 and a viability ([12]; 0.024 µM) of 0.84. For the same compound, the viability ([12]; 0.12 µM) was 0.875, the viability ([12]; 0.6 µM) was 0.886 and the viability ([12]; 3 µM) was 0.878. It also gave a viability ([12]; 15 µM) of 0.73, a viability ([13]; 0.024 µM) of 0.995 and a viability ([13]; 0.12 µM) of 1.02. For the same compound, the viability ([13]; 0.6 µM) was 0.846, the viability ([13]; 3 µM) was 0.908 and the viability ([13]; 15 µM) was 0.595. For the same compound, the viability ([14]; 0.024 µM) was 0.967, the viability ([14]; 0.12 µM) was 0.981 and the viability ([14]; 0.6 µM) was 0.913. For the same compound, the viability ([14]; 3 µM) was 0.897, the viability ([14]; 15 µM) was 0.521 and the viability ([15]; 0.024 µM) was 0.936. It also gave a viability ([15]; 0.12 µM) of 0.937, a viability ([15]; 0.6 µM) of 0.923 and a viability ([15]; 3 µM) of 0.876. For the same compound, the viability ([15]; 15 µM) was 0.256, the viability ([16]; 0.024 µM) was 0.968 and the viability ([16]; 0.12 µM) was 0.986. The viability ([16]; 0.6 µM) was 0.955, the viability ([16]; 3 µM) was 0.929 and the viability ([16]; 15 µM) was 0.331. It also gave a viability ([20]; 0.024 µM) of 1.07, a viability ([20]; 0.12 µM) of 0.99 and a viability ([20]; 0.6 µM) of 0.818. It also gave a viability ([20]; 3 µM) of 0.873, a viability ([20]; 15 µM) of 0.191 and a viability ([17]; 0.024 µM) of 1.06. The viability ([17]; 0.12 µM) was 1.05, the viability ([17]; 0.6 µM) was 0.974 and the viability ([17]; 3 µM) was 0.963. It also gave a viability ([17]; 15 µM) of 0.701, a viability ([18]; 0.024 µM) of 0.957 and a viability ([18]; 0.12 µM) of 0.817. It also gave a viability ([18]; 0.6 µM) of 0.767, a viability ([18]; 3 µM) of 0.666 and a viability ([18]; 15 µM) of 0.318. It also gave a viability ([19]; 0.024 µM) of 0.976, a viability ([19]; 0.12 µM) of 0.968 and a viability ([19]; 0.6 µM) of 0.91. For the same compound, the viability ([19]; 3 µM) was 0.948 and the viability ([19]; 15 µM) was 0.815.
